The values below come from ChEMBL document CHEMBL1201862, “PubChem BioAssay data set” (2004).

Some test systems named below: OVCAR-4; SNB-19; DMS-114; Malme-3M; EKVX; UACC-257; SK-MEL-2; M14; MOLT-4; TK-10; SK-MEL-5; RXF 393; CAKI-1; SF-268; SN12C; NCI-H226; CCRF-CEM; SK-OV-3; MDA-N; MDA-MB-231.
What all share (assay): NCI-60 cell line screen, 48 h

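Each compound was tested at five concentrations against cells in 96-well plates for 48 hours. Here, GI50 denotes the concentration required for 50% inhibition of growth.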 The source made the active and inactive calls. Cut-off read from the data, not from the text of the source: active = GI50 up to about 1.1 µM and inactive = higher. Where a SMILES comes first, the peptide text is derived from it. [ ]: non-standard residue; d: D form. The star is where a group is joined. NMeF = CN[CH](Cc1ccccc1)C(=O)O; NMeV = CN[CH](C(=O)O)C(C)C; Boc = CC(C)(C)OC(=O)*; OBn = c1ccc(CO*)cc1 Bounds are passed on as bounds.

Take `COc1ccc(NC(=O)CC2SC(Nc3ccc(Cl)cc3C)=NC2=O)c([N+](=O)[O-])c1` (stereo unspecified): the GI50 in the experiment with OVCAR-4, in the experiment on SNB-19, in the experiment with DMS-114, with Malme-3M, with EKVX and with UACC-257 was > 100 µM (inactive) in each case. Further, the GI50 with SK-MEL-2, in the experiment with M14, in the experiment with MOLT-4, in the experiment with TK-10, in the experiment with SK-MEL-5 and in the experiment on RXF 393 was > 100 µM (inactive) each time. Also, the GI50 in the experiment on CAKI-1, with SF-268, with SN12C, with NCI-H226 and in the experiment on CCRF-CEM was > 100 µM (inactive) in each case.
Regarding `NC1=NS(=O)(=O)Nc2nc(-c3ccc(Cl)cc3)[nH]c21`, the GI50 in the experiment with OVCAR-4, with SNB-19, in the experiment on DMS-114, in the experiment on Malme-3M, in the experiment with SK-MEL-2 and in the experiment on M14 was > 100 µM (inactive) throughout. Moreover, the GI50 was > 100 µM (inactive) in the experiment with MOLT-4; > 100 µM (inactive) in the experiment with TK-10; > 100 µM (inactive) in the experiment with SK-OV-3; > 100 µM (inactive) in the experiment with SK-MEL-5; > 10 µM (inactive) in the experiment on RXF 393; > 100 µM (inactive) in the experiment with CAKI-1. The GI50 in the experiment with SF-268, with SN12C and in the experiment with CCRF-CEM was > 100 µM (inactive) each time.
Take `C=C(NC(=O)C(=C)NC(=O)c1csc(C2=NC3c4csc(n4)C4NC(=O)c5csc(n5)C(C(C)(O)C(C)O)NC(=O)C5CSC(=N5)/C(=C/C)NC(=O)C(C(C)O)NC(=O)c5csc(n5)C3(CC2)NC(=O)C(C)NC(=O)C(=C)NC(=O)C(C)NC(=O)C(C(C)CC)NC2C=Cc3c(C(C)O)cc(nc3C2O)C(=O)OC4C)n1)C(N)=O` (stereo unspecified): the GI50 with OVCAR-4 was 19.9 µM (inactive); in the experiment on SNB-19, 2.69 µM (inactive); in the experiment on DMS-114, 2.72 µM (inactive); in the experiment on Malme-3M, 1.63 µM (inactive); in the experiment with EKVX, 18.2 µM (inactive); in the experiment on UACC-257 it was 1.75 µM (inactive). In addition, the GI50 was 1.65 µM (inactive) with SK-MEL-2; 1.67 µM (inactive) in the experiment with M14; 2.75 µM (inactive) in the experiment on TK-10; 15 µM (inactive) in the experiment with SK-OV-3; 1.34 µM (inactive) in the experiment with SK-MEL-5; 2.92 µM (inactive) in the experiment with CAKI-1. Also, the figures for the GI50 in the experiment on SN12C, in the experiment with NCI-H226 and in the experiment on CCRF-CEM were 1.94 µM (inactive), 1.9 µM (inactive) and 0.297 µM (active), respectively.
Turning to `O=C(N/N=C/c1ccc(Cl)cc1)c1ccccc1Nc1ccccc1C(=O)N/N=C/c1ccc(Cl)cc1`, the GI50 in the experiment on OVCAR-4 is > 100 µM (inactive); in the experiment on MDA-N, > 100 µM (inactive); in the experiment with SNB-19 it was > 100 µM (inactive); with Malme-3M it was 64.4 µM (inactive); with EKVX it was > 100 µM (inactive); with UACC-257 it was > 100 µM (inactive). For the same molecule, the GI50 in the experiment with SK-MEL-2 is > 100 µM (inactive); with M14 it was 33 µM (inactive); in the experiment on MOLT-4, > 100 µM (inactive); with TK-10, > 100 µM (inactive); in the experiment on MDA-MB-231 it was 91.6 µM (inactive); in the experiment with SK-OV-3, > 100 µM (inactive). Further, the GI50 in the experiment with SK-MEL-5, in the experiment on RXF 393, in the experiment on CAKI-1, with SF-268, in the experiment with SN12C and in the experiment on NCI-H226 was > 100 µM (inactive) each time. In addition, the GI50 in the experiment on CCRF-CEM was > 100 µM (inactive).
For `N#CCc1nc(-c2cc3ccc(O)cc3oc2=O)cs1`, the GI50 in the experiment with OVCAR-4 was 43.4 µM (inactive); with MDA-N it was 48.9 µM (inactive); in the experiment with SNB-19, > 100 µM (inactive); in the experiment on Malme-3M it was > 100 µM (inactive); in the experiment on EKVX, 63 µM (inactive); with UACC-257, 41.7 µM (inactive). The GI50 was 27.2 µM (inactive) in the experiment on SK-MEL-2; 46.5 µM (inactive) in the experiment with M14; 37.9 µM (inactive) in the experiment on MOLT-4; > 100 µM (inactive) with TK-10; 95.1 µM (inactive) in the experiment on MDA-MB-231; 73.6 µM (inactive) in the experiment on SK-OV-3. Further, the GI50 was 38.7 µM (inactive) with SK-MEL-5; 84.7 µM (inactive) in the experiment on RXF 393; > 100 µM (inactive) in the experiment on CAKI-1; 83.2 µM (inactive) in the experiment on SF-268; 54.8 µM (inactive) in the experiment on SN12C; 53.6 µM (inactive) with NCI-H226. The GI50 in the experiment with CCRF-CEM is 38.7 µM (inactive).
On to `CC(CN(C)C)C(=O)c1ccccc1` (stereo unspecified), for which the GI50 in the experiment with OVCAR-4 is > 41.1 µM (inactive); in the experiment on SNB-19, > 77.3 µM (inactive); in the experiment with DMS-114, 26.6 µM (inactive); in the experiment with Malme-3M, 24.3 µM (inactive); in the experiment with EKVX it was > 50.7 µM (inactive); in the experiment on UACC-257, > 48.6 µM (inactive). In addition, the GI50 in the experiment on SK-MEL-2 is 22.7 µM (inactive); in the experiment on M14, 24.7 µM (inactive); with MOLT-4, 8.22 µM (inactive); in the experiment on TK-10, > 100 µM (inactive); in the experiment on SK-MEL-5 it was > 82.4 µM (inactive); in the experiment on RXF 393, 22.8 µM (inactive). Besides, the GI50 in the experiment with CAKI-1 is 3.43 µM (inactive); in the experiment with SF-268 it was 30.3 µM (inactive); in the experiment with SN12C, 17.6 µM (inactive); in the experiment on NCI-H226, > 100 µM (inactive); in the experiment on CCRF-CEM it was 3.78 µM (inactive).
`N#Cc1sc2c(c1OC(=O)c1ccco1)c(=O)n(-c1ccccc1)c(=S)n2-c1ccccc1`: the GI50 is 23.6 µM (inactive) with OVCAR-4; 20.8 µM (inactive) with MDA-N; 36.4 µM (inactive) in the experiment on SNB-19; 22.2 µM (inactive) in the experiment with Malme-3M; 52.6 µM (inactive) in the experiment with EKVX; 62.2 µM (inactive) in the experiment on UACC-257. The GI50 was 28.8 µM (inactive) with SK-MEL-2; 25.5 µM (inactive) in the experiment on M14; 13.8 µM (inactive) in the experiment with MOLT-4; 49.8 µM (inactive) in the experiment on TK-10; 26.5 µM (inactive) in the experiment on MDA-MB-231; 27.7 µM (inactive) with SK-OV-3. For the same molecule, the GI50 was 17.6 µM (inactive) in the experiment on SK-MEL-5; 23.3 µM (inactive) with RXF 393; 39.7 µM (inactive) in the experiment with CAKI-1; 32.4 µM (inactive) in the experiment with SF-268; 27.8 µM (inactive) with SN12C; 34.3 µM (inactive) in the experiment with NCI-H226. Besides, the GI50 in the experiment on CCRF-CEM was > 10 µM (inactive).
On to `O=C(CCc1ccccc1)ON1C(=S)NC(c2ccccc2)(c2ccccc2)C1=S`, for which the GI50 in the experiment on OVCAR-4 is 33.7 µM (inactive); in the experiment with MDA-N it was 38.1 µM (inactive); in the experiment with SNB-19, 64.4 µM (inactive); in the experiment on Malme-3M, 20.8 µM (inactive); in the experiment on EKVX it was 25.4 µM (inactive); in the experiment on UACC-257, 36.5 µM (inactive). Moreover, the GI50 in the experiment with SK-MEL-2 was 20.2 µM (inactive); in the experiment with M14 it was 42.1 µM (inactive); in the experiment with MOLT-4, 32.3 µM (inactive); in the experiment with TK-10, 54.5 µM (inactive); in the experiment on MDA-MB-231, 51.3 µM (inactive); with SK-OV-3, 35.6 µM (inactive). Moreover, the GI50 is 19.5 µM (inactive) with SK-MEL-5; 36 µM (inactive) in the experiment on RXF 393; 33.7 µM (inactive) in the experiment with CAKI-1; 28.2 µM (inactive) in the experiment with SF-268; 44.8 µM (inactive) in the experiment on SN12C; 22 µM (inactive) in the experiment on NCI-H226. Further, in the experiment with CCRF-CEM, the GI50 is 21.9 µM (inactive).
As for `O=C(c1cccnc1)N1N=C(c2ccc(Cl)cc2)CC1(O)c1cc(F)c(Cl)cc1Cl` (stereo unspecified), the GI50 was 15.8 µM (inactive) with OVCAR-4; 16.7 µM (inactive) in the experiment on MDA-N; 41.3 µM (inactive) in the experiment with SNB-19; 33.3 µM (inactive) with Malme-3M; 17.5 µM (inactive) in the experiment on EKVX; 18.5 µM (inactive) in the experiment on UACC-257. For the same molecule, the GI50 in the experiment on SK-MEL-2 was 22 µM (inactive); in the experiment with M14, 22 µM (inactive); with MOLT-4, 6.46 µM (inactive); in the experiment on TK-10, 41.1 µM (inactive); in the experiment with MDA-MB-231, 15.1 µM (inactive); in the experiment with SK-OV-3, 30.2 µM (inactive). Besides, the GI50 in the experiment on SK-MEL-5 was 11.3 µM (inactive); with RXF 393 it was 7.05 µM (inactive); in the experiment on CAKI-1, 28.5 µM (inactive); in the experiment on SF-268 it was 19.2 µM (inactive); in the experiment with SN12C it was 14.1 µM (inactive); with NCI-H226 it was 11.6 µM (inactive). In the experiment with CCRF-CEM, the GI50 was 13.3 µM (inactive).
Consider `CCOC(=O)C12CCC(c3c(C)cccc3C)(O1)C(C(=O)OC)=C2C(=O)OC` (stereo unspecified), for which the GI50 was > 9.02 µM (inactive) with OVCAR-4; 0.484 µM (active) with MDA-N; > 9.64 µM (inactive) with SNB-19; 1.05 µM (active) in the experiment with Malme-3M; > 7.18 µM (inactive) with EKVX; 2.58 µM (inactive) with UACC-257. In addition, the GI50 in the experiment with SK-MEL-2 is > 8.99 µM (inactive); with M14, 2.69 µM (inactive); in the experiment with MOLT-4, 4.74 µM (inactive); with TK-10 it was > 10 µM (inactive); with MDA-MB-231 it was 5.07 µM (inactive); in the experiment on SK-OV-3, 5.09 µM (inactive). Further, the GI50 in the experiment with SK-MEL-5 is 0.668 µM (active); with RXF 393 it was 4.71 µM (inactive); in the experiment on CAKI-1 it was > 5.6 µM (inactive); in the experiment with SF-268, > 6.89 µM (inactive); with SN12C it was > 6.75 µM (inactive); in the experiment on NCI-H226, 5.52 µM (inactive). Moreover, in the experiment with CCRF-CEM, the GI50 was 3.06 µM (inactive).
`CC(C)C(NC(=O)OC(C)(C)C)C(=O)N(C)C(Cc1ccccc1)C(=O)N(C)C(C(=O)N(C)C(C(=O)OCc1ccccc1)C(C)C)C(C)C` (stereo unspecified) (Boc-V[NMeF][NMeV][NMeV]-OBn; configuration not given here): the GI50 with SNB-19 was > 100 µM (inactive); in the experiment on DMS-114, 62.5 µM (inactive); in the experiment on Malme-3M, 24.8 µM (inactive); in the experiment with EKVX, 89.1 µM (inactive); in the experiment with UACC-257 it was 39.6 µM (inactive); in the experiment on M14 it was 62.8 µM (inactive). Besides, the GI50 is 4.81 µM (inactive) in the experiment on MOLT-4; > 100 µM (inactive) with TK-10; 12.5 µM (inactive) with SK-MEL-5; > 100 µM (inactive) with SF-268; > 100 µM (inactive) in the experiment with SN12C; > 100 µM (inactive) with NCI-H226. Moreover, the GI50 in the experiment with CCRF-CEM is 48.5 µM (inactive).
